pEC50: −log10 of the molar value. Starred links: 1 amine or outer side, 2 acyl side, 3 side chain; linkers in the order of their positions; H or OH if unused. Non-standard residues stand in square brackets, D forms with d. *: point of attachment. γGlu = O=C(O)[C@H](CCC(=O)[*:2])N[*:1]; βAsp = O=C(O)[C@H](CC(=O)[*:2])N[*:1]; C12 diacid = O=C(O)CCCCCCCCCCC(=O)*; Stearoyl = CCCCCCCCCCCCCCCCCC(=O)*; Myristoyl = CCCCCCCCCCCCCC(=O)*; Lauroyl = CCCCCCCCCCCC(=O)*; Decanoyl = CCCCCCCCCC(=O)*
What was measured:
Chymotrypsin = assay: Inhibition of enzymatic degradation of a model GLP-1 (FRET substrate) by chymotrypsin; type: biochemical; details: for Slope of the initial increase in fluorescence obtained during incubation with 0.001 mg/ml Chymotrypsin: compound 1 mM; for pEC50: read-out: EC50 Chymotrypsin (0.001 mg/ml), 0.001 mg/ml chymotrypsin, 37° C., ± standard error if at least 3 measurements
Excerpt: (§1) The use of Förster resonance energy transfer (FRET), also known as fluorescence resonance energy transfer, substrates to monitor activity of proteolytic enzymes is known in the field (for example Anjuere, F. et al. (1993). Biochem J 291 (Pt 3), 869-73).
(§2) Model GLP-1 analogue was designed as FRET substrate by incorporation of 7-Methoxycoumarin-4-acetic acid (MCA) group as the donor chromophore and dinitrophenol group (DNP) as the acceptor chromophore.
(§3) An assay following the increase in fluorescence as a function of time was established in 96 well format using Varioskan Flash Multimode Meter (Thermo Scientific). Each well contained 70 μl of Dulbecco's phosphate buffer saline (Invitrogen catalogue #14190-094), 10 μl of 100 μM GLP-1 FRET substrate, 10 μl of N-terminally acylated peptide or oligopeptide of the invention in varying concentration and 10 μl of a stock solution of an enzyme (chymotrypsin, trypsin, elastase, etc.). The incubations were performed at 37° C. Fluorescence (320 nm excitation wavelength and 405 nm emission wavelength) was measured immediately after addition of the enzyme to the 96 well plate and also every minute for at least the next 30 minutes. The concentration of the enzyme was optimized to allow determination of slopes for the time course of initial fluorescence increase with and without the N-terminally acylated peptides or oligopeptides of the invention. The slopes were determined by linear regression of the linear part of the fluorescence trace (for example, the first 10 min of the reaction). Each assay was performed in duplicate and average of the two traces was included in the calculations. The relative effect of N-terminally acylated peptide or oligopeptides of the invention on enzymatic degradation of GLP-1 FRET substrate was obtained by comparison of the slopes achieved by the same concentration of the N-terminally acylated peptide or oligopeptides. […] This was done by plotting the slopes achieved with different concentrations of the N-terminally acylated peptide or oligopeptides of the invention as a function of their concentrations and fitting the experimental results using, for example, sigmoidal logistic regression (2 parameters, Sigma Plot v 11). Inhibition constants for the interaction between the N-terminally acylated peptide or oligopeptides of the invention and proteolytic enzymes were also obtained by performing the assay described above with varying concentrations of the inhibitor and substrate and analyzing the results, for example, by double reciprocal transformation as known to the person skilled in the art and described for example in Hubalek, F. et al., J. Med. Chem. 47, 1760-1766 (2004).
(§4) The EC50 was determined for the following compounds. EC50±standard error is reported if the results of at least 3 independent measurements were available.

Trypsin = assay: Inhibition of enzymatic degradation of a model GLP-1 (FRET substrate) by trypsin; type: biochemical; details: for Slope of the initial increase in fluorescence obtained during incubation with 0.001 mg/ml Trypsin: compound 1 mM; for pEC50: read-out: EC50 Trypsin (0.001 mg/ml), 0.001 mg/ml trypsin, 37° C.
Excerpt: as §1, §2, §3, §4

[1] = Hydrophobicity: retention time during reverse phase HPLC; type: physicochemical; details: Acquity CSH C18; pH 7.2 buffer/CH3CN gradient; 40° C.
Excerpt: The retention time (RT) during reverse phase HPLC was taken as a measure of hydrophobicity of an N-terminally modified peptide or oligopeptide of the invention, where the connection is: The longer the RT, the more hydrophobic N-terminally modified peptide or oligopeptide. The following running conditions were applied during HPLC analysis:
Buffer B: 70% (v/v) aq. CH3CN

RT (retention time during reverse phase HPLC as a measure of hydrophobicity) [1] | pEC50 (Chymotrypsin) | pEC50 (Trypsin) | Substance | Slope of the initial increase in fluorescence obtained during incubation with 0.001 mg/ml Chymotrypsin (Chymotrypsin) | Slope of the initial increase in fluorescence obtained during incubation with 0.001 mg/ml Trypsin (Trypsin)
3.08 min |  |  | Ala-Ala-Pro-Phe-OH [Example 14] | 3.53 | 4.46
8.06 min |  |  | N-dodecanoyl-Aib-Aib-Pro-Phe-OH [Example 7] | 0.34 | 0.49
6.59 min | 3.78 |  | N-dodecanoyl-Ala-Ala-Ala-Pro-Phe-OH [Example 18] |  | 
6.88 min | 3.42 |  | N-dodecanoyl-Ala-Ala-Pro-Phe-Pro-OH [Example 24] |  | 
3.66 min | < 3.30 |  | N-dodecanoyl-γGlu-Ala-Ala-Pro-Arg-OH [Example 25] |  | 
 | 4.17 | 4.48 | N-hexadecanoyl-γGlu-D-Ala-D-Pro-D-Phe-OH [Example 182] |  | 
 | 4.25 | 4.12 | N-hexadecanoyl-γGlu-DAla-DPro-DPhe-OH [Example 155] |  | 
 | 5.40 | 5.15 | N-icosanoyl-γGlu-Ala-Ala-Pro-Phe-OH [Example 161] |  | 
 | 5.05 | 4.89 | N-icosanoyl-γGlu-Ala-Pro-Phe-OH (icosanoyl-[γGlu]APF-OH) [Example 151] |  | 
 | 4.77 | 4.80 | N-octadecanoyl-γGlu-Ala-Ala-Pro-Phe-OH [Example 160] |  | 
 | 4.89 | 4.66 | N-octadecanoyl-γGlu-Ala-Pro-Phe-OH (Stearoyl-[γGlu]APF-OH; SMILES CCCCCCCCCCCCCCCCCC(=O)N[C@@H](CCC(=O)N[C@@H](C)C(=O)N1CCC[C@H]1C(=O)N[C@@H](Cc1ccccc1)C(=O)O)C(=O)O) [Example 150] |  | 
 | 3.87 | 3.75 | N-tetradecanoy-γGlu-His-Ala-Ala-Pro-Tyr-OH [Example 191] |  | 
 | 4.55 | 3.43 | N-tetradecanoyl-Ala-Ala-Ala-Ala-Pro-Phe-OH [Example 140] |  | 
 | 4.14 | 4.36 | N-tetradecanoyl-Ala-Ala-Pro-D-Phe-OH [Example 185] |  | 
 | 5.70 | 4.80 | N-tetradecanoyl-Arg-His-Ala-Arg-Pro-Phe-OH [Example 197] |  | 
 | 4.16 | 4.42 | N-tetradecanoyl-D-Ala-D-Ala-D-Pro-D-Phe-OH [Example 184] |  | 
 | 4.77 | 5.15 | N-tetradecanoyl-D-His-D-Ala-D-Arg-D-Pro-D-Phe-OH [Example 195] |  | 
 | 4.03 | 4.24 | N-tetradecanoyl-Glu-Ala-Ala-Pro-Phe-OH [Example 162] |  | 
 | 4.03 | 3.57 | N-tetradecanoyl-Glu-Ala-Ala-Pro-Phe-OH [Example 163] (Myristoyl-EAAPF-OH; SMILES CCCCCCCCCCCCCC(=O)N[C@@H](CCC(=O)O)C(=O)N[C@@H](C)C(=O)N[C@@H](C)C(=O)N1CCC[C@H]1C(=O)N[C@@H](Cc1ccccc1)C(=O)O) |  | 
 | 4.85 | 3.41 | N-tetradecanoyl-Glu-Ala-Ala-Pro-Trp-OH [Example 143] |  | 

RT (retention time during reverse phase HPLC as a measure of hydrophobicity) [1] | pEC50 (Chymotrypsin) | pEC50 (Trypsin) | Substance | Slope of the initial increase in fluorescence obtained during incubation with 0.001 mg/ml Chymotrypsin (Chymotrypsin) | Slope of the initial increase in fluorescence obtained during incubation with 0.001 mg/ml Trypsin (Trypsin)
 | 4.85 | 3.89 | N-tetradecanoyl-Glu-Ala-Ala-Pro-Trp-OH [Example 187] |  | 
 | 4.21 | 4.16 | N-tetradecanoyl-His-Ala-Ala-Pro-Phe-OH [Example 166] |  | 
 | 4.47 | 3.52 | N-tetradecanoyl-His-Ala-Trp-Pro-Phe-OH [Example 192] |  | 
 | 4.70 | 4.43 | N-tetradecanoyl-Leu-Ala-Ala-Pro-Tyr-OH [Example 142] |  | 
 | 4.46 | 3.91 | N-tetradecanoyl-Leu-Ala-Ala-Pro-Tyr-OH [Example 159] |  | 
 | 4.08 | 4.37 | N-tetradecanoyl-Leu-betaAla-Ala-Pro-DPhe-OH [Example 145] |  | 
 | 4.05 | 3.77 | N-tetradecanoyl-Lys-Ala-Arg-Pro-Phe-OH [Example 193] |  | 
 | 4.29 | 4.03 | N-tetradecanoyl-Thr-Ala-Ala-Pro-Phe-OH [Example 173] |  | 
 | 4.24 | 3.95 | N-tetradecanoyl-Thr-Ala-Ala-Pro-Tyr-OH [Example 158] |  | 
 | 4.42 | 4.37 | N-tetradecanoyl-Trp-Pro-Tyr-OH [Example 153] |  | 
 | 4.27 | 3.46 | N-tetradecanoyl-bAsp-Ala-Ala-Pro-Phe-OH [Example 164] |  | 
 | 3.81 | 3.92 | N-tetradecanoyl-bAsp-Ala-Pro-Phe-OH (Myristoyl-[βAsp]APF-OH; SMILES CCCCCCCCCCCCCC(=O)N[C@@H](CC(=O)N[C@@H](C)C(=O)N1CCC[C@H]1C(=O)N[C@@H](Cc1ccccc1)C(=O)O)C(=O)O) [Example 165] |  | 
 | 5.22 | 4.12 | N-tetradecanoyl-eLys-His-Ala-Arg-Pro-Phe-OH [Example 196] |  | 
7.7 min | < 3.30 |  | N-tetradecanoyl-βAla-βAla-βAla-βAla-Pro-Phe-OH [Example 137] |  | 
 | 4.08 | 4.10 | N-tetradecanoyl-γGlu-Ala-Arg-Pro-Phe-OH [Example 179] |  | 
 | 4.02 | 3.70 | N-tetradecanoyl-γGlu-Ala-Pro-D-Trp-OH [Example 177] |  | 
 | 3.98 | 4.20 | N-tetradecanoyl-γGlu-Ala-Pro-Trp-OH (Myristoyl-[γGlu]APW-OH; SMILES CCCCCCCCCCCCCC(=O)N[C@@H](CCC(=O)N[C@@H](C)C(=O)N1CCC[C@H]1C(=O)N[C@@H](Cc1c[nH]c2ccccc12)C(=O)O)C(=O)O) [Example 176] |  | 
 | 3.37 | < 3.30 | N-tetradecanoyl-γGlu-D-Ala-D-Ala-D-Pro-D-Phe-OH [Example 156] |  | 
 | 4.72 | 4.08 | N-tetradecanoyl-γGlu-His-Ala-Arg-Pro-Phe-OH [Example 194] |  | 
4.95 min | < 3.30 |  | N-tetradecanoyl-γGlu-βAla-βAla-Pro-Phe-OH [Example 139] |  | 

Substance | RT (retention time during reverse phase HPLC as a measure of hydrophobicity) [1] | pEC50 (Chymotrypsin) | pEC50 (Trypsin) | Slope of the initial increase in fluorescence obtained during incubation with 0.001 mg/ml Chymotrypsin (Chymotrypsin) | Slope of the initial increase in fluorescence obtained during incubation with 0.001 mg/ml Trypsin (Trypsin)
N-decanoyl-Ala-Ala-Pro-Arg-OH (Decanoyl-AAPR-OH; SMILES CCCCCCCCCC(=O)N[C@@H](C)C(=O)N[C@@H](C)C(=O)N1CCC[C@H]1C(=O)N[C@@H](CCCNC(=N)N)C(=O)O) [Example 20] | 3.79 min | < 3.30 |  |  | 
N-dodecandioyl-Ala-Ala-Pro-Phe-OH ({C12 diacid}-AAPF-OH) [Example 15] | 3.13 min |  |  | 2.07 | 4.17
N-dodecanoyl-Ala-Ala-Pro-Tyr-OH [Example 17] (Lauroyl-AAPY-OH; SMILES CCCCCCCCCCCC(=O)N[C@@H](C)C(=O)N[C@@H](C)C(=O)N1CCC[C@H]1C(=O)N[C@@H](Cc1ccc(O)cc1)C(=O)O) | 5.83 min |  |  |  | 
N-dodecanoyl-γGlu-Ala-Pro-Arg-OH (Lauroyl-[γGlu]APR-OH; SMILES CCCCCCCCCCCC(=O)N[C@@H](CCC(=O)N[C@@H](C)C(=O)N1CCC[C@H]1C(=O)N[C@@H](CCCNC(=N)N)C(=O)O)C(=O)O) [Example 21] | 3.66 min | < 3.30 |  |  | 
N-dodecanoyl-γGlu-Ala-Pro-Phe-OH (Lauroyl-[γGlu]APF-OH; SMILES CCCCCCCCCCCC(=O)N[C@@H](CCC(=O)N[C@@H](C)C(=O)N1CCC[C@H]1C(=O)N[C@@H](Cc1ccccc1)C(=O)O)C(=O)O) [Example 22] | 4.09 min | < 3.30 |  |  | 

— patent US20150038435A1, “N-TERMINALLY MODIFIED OLIGOPEPTIDES AND USES THEREOF” (Novo Nordisk A/S, priority 2012, published 2015)
